Tests used:
[1] = tested on: patient fibroblasts lacking functional SORD; experiment: Intracellular sorbitol level in patient fibroblasts (UPLC-MS/MS, normalised to protein content); assay type: cell-based, human; details: 72 hrs, Epalrestat 100 μM, Ranirestat 10 μM, vs DMSO
Method: Asynchronous cell cultures were grown to approximately 80% confluency and treated with epalrestat (100 μM), ranirestat (10 μM) or DMSO for 72 hours. Media containing the drugs or DMSO were changed every 24 hours.
Sorbitol determination in human fibroblast lysates was performed in ultra-performance liquid chromatography-tandem mass spectrometry (UPLC-MS/MS) (Waters Acquity UPLC & TQD mass spectrometer—Waters, Milford, MA, USA). […] Lysate samples underwent protein precipitation with Acetonitrile (1:5), ten-time dilution with Acetonitrile-water (50/50) and clean up on Oasis HLB cartridges (10 mg/1 ml), before injection in UPLC (3 μL). UPLC conditions: column, BEH Amide 1.7 μm (2.1×100 mm) at 88° C., eluent A, Acetonitrile 90%-water 5%-Isopropanol 5%, eluent B, Acetonitrile 80%-water 20%, gradient elution 0 min., 100% A, 3.6 min. 100% B, flow rate, 0.45 ml/min. The retention time of sorbitol was 2.7 min.
The effect of two commercially available aldose reductase inhibitors (ARI), Epalrestat and Ranirestat, were tested on intracellular sorbitol accumulation in patient fibroblasts lacking functional SORD. Patient and control fibroblasts were grown for 72 hrs in the presence or absence of Epalrestat (100 μM) or Ranirestat (10 μM) and intracellular sorbitol levels were measured thereafter.

[2] = tested on: Sodh2MB01265/MB01265 Drosophila; experiment: Sorbitol level in fly brain/head homogenates (UPLC); assay type: in vivo, Drosophila melanogaster; details: Sodh2MB01265/MB01265 flies at 10 DAE; fed from 2 DAE, 80 μM / 80 μg/ml in food
Method: (FIG. 4B) Sorbitol level as measured by UPLC from brain/head homogenates and normalised to protein concentration from wild-type (yw, empty circle dots), Sodh2^MB01265/MB01265 (full circle dots) and neuron-specific knock-down of Sodh1 and Sodh1 by RNAi (square dots) Drosophilae at 10 days after eggs enclosure. Sodh2 Mimic and Sodh1 and Soh2 RNAi Drosophilae were fed with either 80 μM Epalrestat, 80 μM Ranirestat or DMSO. The graphs show the mean±s.d. A two-tailed t-test was performed to compare sorbitol level. Statistical significance is indicated as *, ** or *** if P-value <0.05, <0.01 or <0.001, respectively, unless otherwise specified.
Lysate samples underwent protein precipitation with Acetonitrile (1:5), ten-time dilution with Acetonitrile-water (50/50) and clean up on Oasis HLB cartridges (10 mg/1 ml), before injection in UPLC (3 μL). UPLC conditions: column, BEH Amide 1.7 μm (2.1×100 mm) at 88° C., eluent A, Acetonitrile 90%-water 5%-Isopropanol 5%, eluent B, Acetonitrile 80%-water 20%, gradient elution 0 min., 100% A, 3.6 min. 100% B, flow rate, 0.45 ml/min. The retention time of sorbitol was 2.7 min. MS/MS conditions: interface, Electrospray interface in negative ion mode, Multiple Reaction Monitoring acquisition, m/z 180.9→88.9 (CV 24, CE 15).
Unless specified, all flies were kept on cornmeal-molasses-yeast medium at 25° C., 65% humidity, with 12 h light/12 h dark cycles. […]

[3] = tested on: Sodh2MB01265/MB01265 flies; experiment: Locomotor activity (negative geotaxis assay), Sodh2 mutant flies; assay type: in vivo, Drosophila melanogaster; details: 80 μM in food, vs yw control flies
Method: […] Equal amount of DMSO was mixed into the fly food as control. The vials were dried at room temperature for 12 h before feeding.
For lifespan assay, 100 newly enclosed female flies of each group were collected and placed in vials of 20 individuals. Flies were transferred into new vials every 2 days and the number of dead flies was counted. Survival data was plotted using Kaplan-Meier plot and compared between groups using log-rank test. For negative geotaxis behavior assay, 10 age-matched female flies were placed in a vial marked with a black line drawn horizontally 8 cm above the bottom. Flies were given 60 min to fully recover from CO2 anesthesia, and were gently tapped onto the bottom and given 10 s to climb. Flies that crossed the 8 cm line were counted. For each vial, this assay was repeated 10 times, and 10 independent vials of each group (a total 100 flies per group) were tested. To minimize observer-expectancy bias, this assay was performed with the examiner masked to the group assignment.

[4] = tested on: flies with neuronal specific knockdown of both Sodh1 and Sodh2; experiment: Locomotor activity (negative geotaxis assay), Sodh1 and Sodh2 double knockdown flies; assay type: in vivo, Drosophila melanogaster; details: neuronal specific knockdown of Sodh1 and Sodh2, 80 μM in food, vs yw control flies
Method: FIG. 7. Treatment with aldose reductase inhibitors Epalrestat and Ranirestat restore locomotor function in Sodh1 and Sodh2 double knockdown flies. Locomotor activity of control flies (yw) feeding with DMSO (dots, first data point from the left for each DAE point indicated), or flies with neuronal specific knockdown of Sodh1 and Sodh2 feeding with DMSO (squares, second data point from the left for each DAE point indicated), 80 μM Epalrestat (squares, third data point from the left for each DAE point indicated), or 80 μM Ranirestat (squares, forth data point from the left for each DAE point indicated). n=10 in each group. Data are presented as mean±s.d. Statistical analysis was performed using Two-Way ANOVA followed by post-hoc Tukey's multiple comparison test. ***P<0.001, ****P<0.0001. […] Equal amount of DMSO was mixed into the fly food as control. The vials were dried at room temperature for 12 h before feeding. For lifespan assay, 100 newly enclosed female flies of each group were collected and placed in vials of 20 individuals. Flies were transferred into new vials every 2 days and the number of dead flies was counted. Survival data was plotted using Kaplan-Meier plot and compared between groups using log-rank test. […] Flies that crossed the 8 cm line were counted. […]

[5] = tested on: Sodh2MB01265/MB01265 mutant flies; experiment: Age-dependent synaptic degeneration in the lamina (vacuoles, BRP immunostaining, confocal microscopy); assay type: in vivo, Drosophila melanogaster
Method: FIGS. 4A-G. Treatment with aldose reductase inhibitors Epalrestat and Ranirestat decrease sorbitol level and restore function. (FIG. 4A) Intracellular sorbitol level as measured by UPLC and normalised to protein content in fibroblasts from healthy controls (n=5, circle dots) and patients carrying biallelic nonsense mutations in SORD (n=5, square dots) after three days of treatment with Epalrestat 100 μM, Ranirestat 10 μM or DMSO. (FIG. 4B) Sorbitol level as measured by UPLC from brain/head homogenates and normalised to protein concentration from wild-type (yw, empty circle dots), Sodh2^MB01265/MB01265 (full circle dots) and neuron-specific knock-down of Sodh1 and […] (square dots) Drosophilae at 10 days after eggs enclosure. Sodh2 Mimic and Sodh1 and Soh2 RNAi Drosophilae were fed with either 80 μM Epalrestat, 80 μM Ranirestat or DMSO. The graphs show the mean±s.d. A two-tailed t-test was performed to compare sorbitol level. Statistical significance is indicated as *, ** or *** if P-value <0.05, <0.01 or <0.001, respectively, unless otherwise specified. All experiments were repeated independently twice with similar results. (FIG. 4C) Locomotor activity of control flies (yw) feeding with DMSO, Sodh2^MB01265/MB01265 flies feeding with DMSO, 80 μM Epalrestat, or 80 μM Ranirestat (n=10 in each group). Data are presented as mean±s.d. Statistical analysis was performed using Two-Way ANOVA followed by post-hoc Tukey's multiple comparison test. *P<0.05, ***P<0.001 (FIGS. 4D-4F) Laminae of Sodh2^MB01265/MB01265 homozygous flies at 10 DAE and 40 DAE fed with DMSO (FIG. 4D), 80 μM Epalrestat (FIG. 4E), or 80 μM Ranirestat (FIG. 4F). Arrowheads indicate the lamina vacuoles. Boxes indicate higher magnification areas of the lamina. The intensity of BRP is indicated. […] (FIG. 4G) Quantification of the vacuole number, size, and BRP intensity of (FIGS. 4D-4F). n=3. […]
Brain dissection and staining were carried out as previously described (Brazill et al., J Vis Exp. 2018; (138)). […] Images were processed and analyzed using FluoView 10-ASW (Olympus).

[6] = tested on: aldose reductase (AR) (AKR1B1 gene); experiment: Knock-down of aldose reductase by antisense oligonucleotide, Western blot normalized to β-tubulin; assay type: cell-based, Homo sapiens; details: SORD patient fibroblast and control fibroblasts; scrambled ASO (AR-S 1A) as control
Method: FIGS. 15A-15D. […] This was carried out in a SORD patient fibroblast and control fibroblasts and normalized to β-tubulin and measured via Western blot (FIGS. 15C-15D).
Fibroblasts were lysed in RIPA buffer (ThermoFisher) containing protease inhibitor (Roche) and sonicated for 5 minutes with the Bioruptor sonication device (Diagenode). Cell lysates were centrifuged at 13,000×g for 10 minutes at 4° C., and the supernatant was collected for protein quantification (Pierce BCA Protein Assay Kit). 30 μg of protein sample was mixed with Bolt LDS Sample Buffer and Sample Reducing Agent (ThermoFisher) and heated at 90° C. for 5 min. Samples were loaded on Bolt 4-12% Bis-Tris Plus mini-gel followed by transfer into a nitrocellulose membrane (Bio-Rad). Membrane was blocked with 5% non-fat milk and incubated with anti-SORD (ab189248, Abcam) antibody for 2 hours, washed with TBS containing 0.01% Tween 20 (Bio-Rad) and incubated with a secondary anti-rabbit antibody (Cell Signaling). Membrane was subsequently incubated with GAPDH primary antibody (Santa Cruz) and secondary anti-mouse antibody (Cell Signaling). Chemoluminescence detection was performed with the SuperSignal West Pico PLUS Chemiluminescent Substrate and imaged with the FluorChem E (ProteinSimple).

[7] = Sodh2MB01265/MB01265 flies, at both 10 and 40 DAE, 80 μM in food

| Molecule | intracellular sorbitol level [1] | sorbitol level in fly heads [2] | locomotor activity [3] | locomotor activity [4] | localization of synaptic cytomatrix protein BRP [5, 7] | number of lamina vacuoles [5, 7] | age-dependent synaptic defects ([5]; Sodh2MB01265/MB01265 mutant flies, drug feeding) | aldose reductase protein level (knock-down) [6] |
| --- | --- | --- | --- | --- | --- | --- | --- | --- |
| O=C1C[C@@]2(C(=O)N1)C(=O)N(Cc1ccc(Br)cc1F)C(=O)c1cccn12 [Ranirestat] | significant reduction of sorbitol to a level comparable to controls | significant reduction of sorbitol level | rescued to the levels of yw control flies | rescued to the levels of yw control flies | restored the localization of synaptic cytomatrix protein BRP | reduced the number of vacuoles | restored the age-dependent synaptic defects |  |
| AR 1A: antisense oligonucleotide (ASO) targeting aldose reductase (AKR1B1), SEQ ID NO: 22, GTTTAAGATCATCTCCACCT, modified backbone (modified backbone, type not given here) |  |  |  |  |  |  |  | Significant knock-down |

Reference: US12083168B2, “Treatment and detection of inherited neuropathies and associated disorders” (University of Miami, priority 2019, dated 2024)
